Consider one compound from patent US20180354920A1, “SUBSTITUTED OXADIAZOLES FOR COMBATING PHYTOPATHOGENIC FUNGI” (BASF SE, priority 2015, published 2018).

Each structure is given as a SMILES string.

On to `CCC(=O)Nc1ccc(-c2noc(C(F)(F)F)n2)cn1` [Ex-1, N-[5-[5-(trifluoromethyl)-1,2,4-oxadiazol-3-yl]-2-pyridyl]propanamide], for which the melting point was found to be 130 °C.

Broadly, the melting point is the temperature of the solid-liquid transition.
